Results reported in ChEMBL document CHEMBL1144346, “Synthesis, DNA affinity, and antiprotozoal activity of fused ring dicationic compounds and their prodrugs” (J Med Chem, 2005).

Tested on: Trypanosoma brucei rhodesiense
Assay: In vitro antiprotozoal activity against Trypanosoma brucei rhodesiense strain STIB900
Type: functional, organism-based
Conditions: not given

| Structure (SMILES) | IC50 [µM] |
| --- | --- |
| N=C(Nc1ccc2c(c1)Cc1cc(NC(=N)c3ccccc3)ccc1-2)c1ccccc1 | 0.292 |
| CC(C)/N=C(/N)Nc1ccc2c(c1)Cc1cc(N/C(N)=N\C(C)C)ccc1-2 | 0.0404 |
| N=C(N)c1ccc(OCCCCCOc2ccc(C(=N)N)cc2)cc1 [PENTAMIDINE] | 0.0023 |
| CCOC(=O)N/C(=N/C(C)C)Nc1ccc2c(c1)Cc1cc(N/C(=N\C(C)C)NC(=O)OCC)ccc1-2 | 2.5 |
| N=C(N)Nc1ccc2c(c1)C(=O)c1cc(NC(=N)N)ccc1-2 | 0.0073 |
| CCOC(=O)NC(=N)Nc1ccc2c(c1)Cc1cc(NC(=N)NC(=O)OCC)ccc1-2 | 0.814 |
| N=C(Nc1ccc2c(c1)Cc1cc(NC(=N)c3ccccn3)ccc1-2)c1ccccn1 | 0.894 |
| CC/N=C(/N)Nc1ccc2c(c1)Cc1cc(N/C(N)=N\CC)ccc1-2 | 0.0169 |
| CCOC(=O)NC(=N)Nc1ccc2c(c1)C(=O)c1cc(NC(=N)NC(=O)OCC)ccc1-2 | 12.9 |
| CONC(=N)Nc1ccc2c(c1)Cc1cc(NC(=N)NOC)ccc1-2 | 47.5 |
| CC(C)CONC(=N)Nc1ccc2c(c1)Cc1cc(NC(=N)NOCC(C)C)ccc1-2 | 21.2 |
| CCOC(=O)N/C(=N/C)Nc1ccc2c(c1)Cc1cc(N/C(=N\C)NC(=O)OCC)ccc1-2 | 2.9 |
| N=C(N)Nc1ccc2c(c1)C(=O)c1cc(NC(=N)N)ccc1C2=O | 0.128 |
| CC/N=C(/NC(=O)OCC)Nc1ccc2c(c1)Cc1cc(/N=C(/NCC)NC(=O)OCC)ccc1-2 | 8 |
| C/N=C(/N)Nc1ccc2c(c1)Cc1cc(N/C(N)=N\C)ccc1-2 | 0.0126 |

Tested on: Nucleic Acid
Assay: poly(d(A-T)2) binding affinity is measured as change in DNA melting temperature
Type: nucleic-acid assay
Conditions: not given

| Structure (SMILES) | delta Tm [°C] |
| --- | --- |
| N=C(Nc1ccc2c(c1)Cc1cc(NC(=N)c3ccccc3)ccc1-2)c1ccccc1 | 22 |
| CC(C)/N=C(/N)Nc1ccc2c(c1)Cc1cc(N/C(N)=N\C(C)C)ccc1-2 | 9.3 |
| N=C(N)c1ccc(OCCCCCOc2ccc(C(=N)N)cc2)cc1 [PENTAMIDINE] | 12.6 |
| N=C(N)Nc1ccc2c(c1)C(=O)c1cc(NC(=N)N)ccc1-2 | 6.1 |
| N=C(Nc1ccc2c(c1)Cc1cc(NC(=N)c3ccccn3)ccc1-2)c1ccccn1 | 15.2 |
| CC/N=C(/N)Nc1ccc2c(c1)Cc1cc(N/C(N)=N\CC)ccc1-2 | 10 |
| N=C(N)Nc1ccc2c(c1)Cc1cc(NC(=N)N)ccc1-2 | 13.6 |
| N=C(N)c1ccc(-c2ccc(-c3ccc(C(=N)N)cc3)o2)cc1 [FURAMIDINE] | 25 |
| N=C(N)Nc1ccc2c(c1)C(=O)c1cc(NC(=N)N)ccc1C2=O | 7.2 |
| C/N=C(/N)Nc1ccc2c(c1)Cc1cc(N/C(N)=N\C)ccc1-2 | 10.1 |

Tested on: Plasmodium falciparum
Assay: In vitro antiprotozoal activity for Plasmodium falciparum K1
Type: functional, organism-based
Conditions: not given

| Structure (SMILES) | IC50 [µM] |
| --- | --- |
| N=C(Nc1ccc2c(c1)Cc1cc(NC(=N)c3ccccc3)ccc1-2)c1ccccc1 | 0.481 |
| CC(C)/N=C(/N)Nc1ccc2c(c1)Cc1cc(N/C(N)=N\C(C)C)ccc1-2 | 0.0357 |
| N=C(N)c1ccc(OCCCCCOc2ccc(C(=N)N)cc2)cc1 [PENTAMIDINE] | 0.0346 |
| CCOC(=O)N/C(=N/C(C)C)Nc1ccc2c(c1)Cc1cc(N/C(=N\C(C)C)NC(=O)OCC)ccc1-2 | 6.3 |
| N=C(N)Nc1ccc2c(c1)C(=O)c1cc(NC(=N)N)ccc1-2 | 0.268 |
| CCOC(=O)NC(=N)Nc1ccc2c(c1)Cc1cc(NC(=N)NC(=O)OCC)ccc1-2 | 3.7 |
| N=C(Nc1ccc2c(c1)Cc1cc(NC(=N)c3ccccn3)ccc1-2)c1ccccn1 | 1.2 |
| CC/N=C(/N)Nc1ccc2c(c1)Cc1cc(N/C(N)=N\CC)ccc1-2 | 0.0133 |
| CCOC(=O)NC(=N)Nc1ccc2c(c1)C(=O)c1cc(NC(=N)NC(=O)OCC)ccc1-2 | 3.2 |
| CONC(=N)Nc1ccc2c(c1)Cc1cc(NC(=N)NOC)ccc1-2 | 3 |
| CC(C)CONC(=N)Nc1ccc2c(c1)Cc1cc(NC(=N)NOCC(C)C)ccc1-2 | 0.351 |
| CCOC(=O)N/C(=N/C)Nc1ccc2c(c1)Cc1cc(N/C(=N\C)NC(=O)OCC)ccc1-2 | 10.3 |
| N=C(N)Nc1ccc2c(c1)C(=O)c1cc(NC(=N)N)ccc1C2=O | 30.2 |
| CC/N=C(/NC(=O)OCC)Nc1ccc2c(c1)Cc1cc(/N=C(/NCC)NC(=O)OCC)ccc1-2 | 4.1 |
| C/N=C(/N)Nc1ccc2c(c1)Cc1cc(N/C(N)=N\C)ccc1-2 | 0.01 |

Tested on: Mus musculus
Assay: In vivo antitrypanosomal activity (10 mg/kg for 4 days, i.p.) measured as cured mice infected with Trypanosoma brucei rhodesiense strain STIB900; 2 cured out of 4
Type: functional
Conditions: not given

| Structure (SMILES) | Cures |
| --- | --- |
| N=C(N)Nc1ccc2c(c1)C(=O)c1cc(NC(=N)N)ccc1-2 | 2 |

Tested on: Mus musculus
Assay: In vivo antitrypanosomal activity (20 mg/kg for 4 days, i.p.) measured as cured mice infected with Trypanosoma brucei rhodesiense strain STIB900; 0 cured out of 4
Type: functional
Conditions: not given

| Structure (SMILES) | Cures |
| --- | --- |
| N=C(N)c1ccc(OCCCCCOc2ccc(C(=N)N)cc2)cc1 [PENTAMIDINE] | 0 |
| N=C(N)Nc1ccc2c(c1)Cc1cc(NC(=N)N)ccc1-2 | 0 |
| N=C(N)c1ccc(-c2ccc(-c3ccc(C(=N)N)cc3)o2)cc1 [FURAMIDINE] | 0 |

Tested on: Mus musculus
Assay: In vivo antitrypanosomal activity (20 mg/kg for 4 days, i.p.) measured as cured mice infected with Trypanosoma brucei rhodesiense strain STIB900; 3 cured out of 4
Type: functional
Conditions: not given

| Structure (SMILES) | Cures |
| --- | --- |
| C/N=C(/N)Nc1ccc2c(c1)Cc1cc(N/C(N)=N\C)ccc1-2 | 3 |

Tested on: L6
Assay: In vitro cytotoxicity evaluated using cultured L6 rat myoblast cells
Type: functional
Conditions: read-out: TD50 (the source's name)

| Structure (SMILES) | CC50 [µM] |
| --- | --- |
| N=C(Nc1ccc2c(c1)Cc1cc(NC(=N)c3ccccc3)ccc1-2)c1ccccc1 | 1.9 |
| CC(C)/N=C(/N)Nc1ccc2c(c1)Cc1cc(N/C(N)=N\C(C)C)ccc1-2 | 85.2 |
| N=C(N)c1ccc(OCCCCCOc2ccc(C(=N)N)cc2)cc1 [PENTAMIDINE] | 1.5 |
| CCOC(=O)N/C(=N/C(C)C)Nc1ccc2c(c1)Cc1cc(N/C(=N\C(C)C)NC(=O)OCC)ccc1-2 | 94.2 |
| N=C(N)Nc1ccc2c(c1)C(=O)c1cc(NC(=N)N)ccc1-2 | 41.5 |
| CCOC(=O)NC(=N)Nc1ccc2c(c1)Cc1cc(NC(=N)NC(=O)OCC)ccc1-2 | > 201 |
| N=C(Nc1ccc2c(c1)Cc1cc(NC(=N)c3ccccn3)ccc1-2)c1ccccn1 | 98.7 |
| CC/N=C(/N)Nc1ccc2c(c1)Cc1cc(N/C(N)=N\CC)ccc1-2 | 39.2 |
| CCOC(=O)NC(=N)Nc1ccc2c(c1)C(=O)c1cc(NC(=N)NC(=O)OCC)ccc1-2 | > 200 |
| N=C(N)Nc1ccc2c(c1)Cc1cc(NC(=N)N)ccc1-2 | 4.7 |
| CONC(=N)Nc1ccc2c(c1)Cc1cc(NC(=N)NOC)ccc1-2 | 137 |
| CC(C)CONC(=N)Nc1ccc2c(c1)Cc1cc(NC(=N)NOCC(C)C)ccc1-2 | 68.4 |
| CCOC(=O)N/C(=N/C)Nc1ccc2c(c1)Cc1cc(N/C(=N\C)NC(=O)OCC)ccc1-2 | 95.6 |
| N=C(N)c1ccc(-c2ccc(-c3ccc(C(=N)N)cc3)o2)cc1 [FURAMIDINE] | 6.4 |
| N=C(N)Nc1ccc2c(c1)C(=O)c1cc(NC(=N)N)ccc1C2=O | 35.3 |
| CC/N=C(/NC(=O)OCC)Nc1ccc2c(c1)Cc1cc(/N=C(/NCC)NC(=O)OCC)ccc1-2 | 174 |
| C/N=C(/N)Nc1ccc2c(c1)Cc1cc(N/C(N)=N\C)ccc1-2 | 65.2 |

Tested on: Mus musculus
Assay: In vivo antitrypanosomal activity (10 mg/kg for 4 days, i.p.) measured as survival days of mice infected with Trypanosoma brucei rhodesiense strain STIB900
Type: functional
Conditions: not given

| Structure (SMILES) | Survival [days] |
| --- | --- |
| N=C(N)Nc1ccc2c(c1)C(=O)c1cc(NC(=N)N)ccc1-2 | >50.75 |

Tested on: Mus musculus
Assay: In vivo antitrypanosomal activity (20 mg/kg for 4 days, i.p.) measured as survival days of mice infected with Trypanosoma brucei rhodesiense strain STIB900
Type: functional
Conditions: not given

| Structure (SMILES) | Survival [days] |
| --- | --- |
| N=C(N)c1ccc(OCCCCCOc2ccc(C(=N)N)cc2)cc1 [PENTAMIDINE] | 40.8 |
| N=C(N)Nc1ccc2c(c1)Cc1cc(NC(=N)N)ccc1-2 | 6 |
| N=C(N)c1ccc(-c2ccc(-c3ccc(C(=N)N)cc3)o2)cc1 [FURAMIDINE] | 52.5 |
| C/N=C(/N)Nc1ccc2c(c1)Cc1cc(N/C(N)=N\C)ccc1-2 | >52 |

Tested on: Mus musculus
Assay: In vivo antitrypanosomal activity (100 mg/kg for 4 days, p.o.) measured as survival days of mice infected with Trypanosoma brucei rhodesiense strain STIB900
Conditions: not given

| Structure (SMILES) | Survival [days] |
| --- | --- |
| CCOC(=O)NC(=N)Nc1ccc2c(c1)Cc1cc(NC(=N)NC(=O)OCC)ccc1-2 | 18.75 |
| CONC(=N)Nc1ccc2c(c1)Cc1cc(NC(=N)NOC)ccc1-2 | 8 |
| CC(C)CONC(=N)Nc1ccc2c(c1)Cc1cc(NC(=N)NOCC(C)C)ccc1-2 | 6.75 |

Tested on: Mus musculus
Assay: In vivo antitrypanosomal activity (25 mg/kg for 4 days, p.o.) measured as cured mice infected with Trypanosoma brucei rhodesiense strain STIB900; 2 cured out of 4
Conditions: not given

| Structure (SMILES) | Cures |
| --- | --- |
| CCOC(=O)N/C(=N/C)Nc1ccc2c(c1)Cc1cc(N/C(=N\C)NC(=O)OCC)ccc1-2 | 2 |

Tested on: Mus musculus
Assay: In vivo antitrypanosomal activity (100 mg/kg for 4 days, p.o.) measured as cured mice infected with Trypanosoma brucei rhodesiense strain STIB900; 0 cured out of 4
Conditions: not given

| Structure (SMILES) | Cures |
| --- | --- |
| CCOC(=O)N/C(=N/C(C)C)Nc1ccc2c(c1)Cc1cc(N/C(=N\C(C)C)NC(=O)OCC)ccc1-2 | 0 |
| CCOC(=O)NC(=N)Nc1ccc2c(c1)Cc1cc(NC(=N)NC(=O)OCC)ccc1-2 | 0 |
| CONC(=N)Nc1ccc2c(c1)Cc1cc(NC(=N)NOC)ccc1-2 | 0 |
| CC(C)CONC(=N)Nc1ccc2c(c1)Cc1cc(NC(=N)NOCC(C)C)ccc1-2 | 0 |

Tested on: Mus musculus
Assay: as above
Conditions: not given
Remark: another data set of the same source

| Structure (SMILES) | Cures |
| --- | --- |
| CCOC(=O)NC(=N)Nc1ccc2c(c1)C(=O)c1cc(NC(=N)NC(=O)OCC)ccc1-2 | 0 |
